The text below walks through data of patent US10508105B2, “Indazole compounds as mGluR4 allosteric potentiators, compositions, and methods of treating neurological dysfunction” (Vanderbilt University, priority 2017, dated 2019).

The target of series [1] is human mGlu4 (Homo sapiens (Human), UniProt Q14833). The series can be described thus: mGlu4 PAM assay in human mGlu4/Gqi5 cells with ~EC20 glutamate (Hamamatsu FDSS). It counts as cell-based. The note with it: ~EC20 concentration of glutamate, read-out: mGlu4 PAM EC50. As for the experimental part: The disclosed compounds and compositions can be evaluated for their ability to act as a potentiatior of metabotropic glutamate receptor activity, in particular mGluR4 activity, by any suitable known methodology known in the art. For example, Chinese Hamster Ovary (CHO) cells transfected with human mGluR4 or HEK cells co-transfected with rat mGluR4 and the G-protein regulated Inwardly Rectifying Potassium channel (GIRK) were plated in clear bottom assay plates for assay in a Hamamatsu FDSS Fluorometric Plate Reader. The cells were loaded with either a Ca2+-sensitive fluorescent dye or the thallium responsive dye and the plates were washed and placed into a suitable kinetic plate reader. For human mGluR4 assays, a fluorescence baseline was established for 3-5 seconds, the disclosed compounds were then added to the cells, and the response in cells was measured. Approximately two and a half minutes later, a concentration of mGluR4 orthosteric agonist (e.g. glutamate, L-AP4, or L-SOP) eliciting approximately 20% (EC20) of the maximal agonist response was added to the cells, and the response was measured. Two minutes later, a concentration of mGluR4 agonist (e.g. glutamate, L-AP4, or L-SOP) eliciting 80% (EC80) of the maximal agonist response was added to the cells, and the response was measured. For rat mGluR4/GIRK experiments, a baseline was established for approximately five seconds, disclosed compounds were added, and either an EC20 or EC80 concentration of agonist was added approximately two and one half minutes later.
Sequence of human mGlu4 (Q14833 33-912): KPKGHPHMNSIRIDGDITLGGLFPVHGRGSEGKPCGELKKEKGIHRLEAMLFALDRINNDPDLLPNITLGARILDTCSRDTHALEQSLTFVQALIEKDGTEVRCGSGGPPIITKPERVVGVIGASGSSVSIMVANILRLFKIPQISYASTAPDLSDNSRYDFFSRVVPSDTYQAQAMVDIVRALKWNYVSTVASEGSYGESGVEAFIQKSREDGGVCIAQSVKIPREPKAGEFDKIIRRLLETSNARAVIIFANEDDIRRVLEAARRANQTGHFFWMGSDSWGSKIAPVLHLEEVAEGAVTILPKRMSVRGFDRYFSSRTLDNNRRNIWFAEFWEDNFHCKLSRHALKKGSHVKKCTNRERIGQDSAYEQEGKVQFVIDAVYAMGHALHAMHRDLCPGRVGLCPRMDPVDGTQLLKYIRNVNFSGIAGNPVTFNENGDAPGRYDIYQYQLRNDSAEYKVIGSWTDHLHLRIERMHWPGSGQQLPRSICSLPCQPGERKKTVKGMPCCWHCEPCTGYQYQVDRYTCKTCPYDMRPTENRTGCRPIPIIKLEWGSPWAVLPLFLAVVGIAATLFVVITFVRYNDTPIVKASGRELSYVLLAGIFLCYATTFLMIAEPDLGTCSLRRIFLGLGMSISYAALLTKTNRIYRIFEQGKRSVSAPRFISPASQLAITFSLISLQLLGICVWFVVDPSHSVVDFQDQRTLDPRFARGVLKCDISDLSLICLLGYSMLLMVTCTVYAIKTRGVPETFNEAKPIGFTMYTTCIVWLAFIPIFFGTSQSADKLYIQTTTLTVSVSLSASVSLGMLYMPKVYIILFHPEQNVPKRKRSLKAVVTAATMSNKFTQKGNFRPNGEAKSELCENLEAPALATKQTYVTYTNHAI
The above described assay operated in two modes. In the first mode, a range of concentrations of the disclosed compounds are added to cells, followed by a single fixed concentration of agonist. If the compound acts as a potentiatior, an EC50 value for potentiation and a maximum extent of potentiation by the compound at this concentration of agonist is determined by non-linear curve fitting. If the compound acts as an antagonist, an IC50 value is determined by non-linear curve fitting. In the second mode, several fixed concentrations of the disclosed compounds are added to various wells on a plate, followed by a range in concentrations of agonist for each concentration of disclosed compound. The EC50 values for the agonist at each concentration of compound are determined by non-linear curve fitting. A decrease in the EC50 value of the agonist with increasing concentrations of the sample compound (a leftward shift of the agonist concentration-response curve) is an indication of the degree of mGluR4 potentiation at a given concentration of the sample compound. A decrease in the maximal response of the agonist with increasing concentrations of the sample compounds, with or without a rightward shift in agonist potency, is an indication of the degree of antagonism at mGluR4. The second mode also indicates whether the sample compounds also affect the maximum response to mGluR4 to agonists.

In series [2] the test system is haloperidol-induced catalepsy. The series can be described thus: haloperidol-induced catalepsy (standard PD model). It counts as in vivo, rodent. The note with it: oral doses after haloperidol; relative to control mGlu4 PAM VU506. The text has this:
B) Efficacy of example 131 in the standard PD model of haloperidol-induced catalepsy, relative to a control mGlu4 PAM, VU506. […] Also see a) Engers, D. W.; Gogliotti, R. D.; Cheung, Y-Y.; Salovich, J. M.; Garcia-Barrantes, P. M.; Daniels, J. S.; Morrison, R.; Jones, C. K.; Blobaum, A. L.; Macor, J. E.; Bronson, J. J.; Conn, P. J.; Lindsley, C. W.; Niswender, C. M.; Hopkins, C. R. ‘Discovery, synthesis and pre-clinical characterization of N-(3-chloro-4-fluorophenyl)-1H-pyrazolo[4,3-b]pyridin-3-amine (VU0418506), a novel positive allosteric modulator of the metabotropic glutamate receptor 4 (mGlu4)’ ACS Chem. Neurosci. 2016, 7, 1192-1200; b) Niswender, C. M.; Jones, C. K.; Bubser, M.; Gray, A. T.; Blobaum, A. L.; Engers, D. W.; Altman, M. K.; O'Brien, D. E.; Rook, J. M.; Rodriguez, A. L.; Loch, M. T.; Daniels, J. S.; Lindsley, C. W.; Hopkins, C. R.; Conn, P. J. ‘Development of VU0418506, a positive allosteric modulator that differentiates metabotropic glutamate receptor 4 (mGlu4) homomeric receptors from mGlu2/4 heteromers’ ACS Chem. Neurosci., 2016, 7, 1201-1211.

The nature of series [3]: rat CNS penetration (Kp). Type of series: in vivo. As to conditions: brain/plasma.

As usually defined, the EC50 is the concentration giving half of the maximal effect. What is called Kp is tissue or fluid exposure divided by exposure in the circulation. `Cn1nc(OC[C@H]2COCCO2)c2ccc(NC(=O)c3ncccc3N)cc21` [Compound 131]: the concentration for a half-maximal effect (EC50) in series [1] amounted to 50.1 nM. In series [2], the “reversal of haloperidol-induced catalepsy” value is listed as “reverse catalepsy in a dose-dependent manner”. Further, in series [3], the Kp worked out at 1.6.
